Measurements from PMC10296281 (2023).

Key:
Assay in all cases: bio-layer interferometry, 1:1 local fit
[1] = tested on: Sequence 6 (1 to 60) (DNA, aptamer) AGCAGCACAGAGGTCAGATGACTTCAGTGAGTTGTCCCACGGTCGGCGAGTCGGTGGTAG; conditions: 100 mM NaCl, 5 mM KCl, 2 mM MgCl2, 1 mM CaCl2; 20 mM Tris-HCl, 0.02 Tween 20, pH 7.6; R2 0.905
[2] = tested on: Sequence 2 (6 to 80) (DNA, aptamer) CACAGAGGTCAGATGACTTCAGTGAGTTGTCCCACGGTCGGCGAGTCGGTGGTAGCCTATGCGTGCTACCGTGAA; conditions: 100 mM NaCl, 5 mM KCl, 2 mM MgCl2, 1 mM CaCl2; 20 mM Tris-HCl, 0.02 Tween 20, pH 7.6; R2 0.973
[3] = tested on: Sequence 5 (21 to 80) (DNA, aptamer) ACTTCAGTGAGTTGTCCCACGGTCGGCGAGTCGGTGGTAGCCTATGCGTGCTACCGTGAA; conditions: 100 mM NaCl, 5 mM KCl, 2 mM MgCl2, 1 mM CaCl2; 20 mM Tris-HCl, 0.02 Tween 20, pH 7.6; R2 0.924
[4] = tested on: Sequence 1 (original aptamer, 1 to 80) (DNA, aptamer) AGCAGCACAGAGGTCAGATGACTTCAGTGAGTTGTCCCACGGTCGGCGAGTCGGTGGTAGCCTATGCGTGCTACCGTGAA; conditions: 100 mM NaCl, 5 mM KCl, 2 mM MgCl2, 1 mM CaCl2; 20 mM Tris-HCl, 0.02 Tween 20, pH 7.6; R2 0.993
[5] = tested on: Sequence 3 (1 to 75) (DNA, aptamer) AGCAGCACAGAGGTCAGATGACTTCAGTGAGTTGTCCCACGGTCGGCGAGTCGGTGGTAGCCTATGCGTGCTACC; conditions: 100 mM NaCl, 5 mM KCl, 2 mM MgCl2, 1 mM CaCl2; 20 mM Tris-HCl, 0.02 Tween 20, pH 7.6; R2 0.946
[6] = tested on: Sequence 11 (41 to 80) (DNA, aptamer) GGTCGGCGAGTCGGTGGTAGCCTATGCGTGCTACCGTGAA; conditions: 100 mM NaCl, 5 mM KCl, 2 mM MgCl2, 1 mM CaCl2; 20 mM Tris-HCl, 0.02 Tween 20, pH 7.6; R2 0.757
[7] = tested on: Sequence 10 (31 to 50) (DNA, aptamer) GTTGTCCCACGGTCGGCGAG; conditions: 100 mM NaCl, 5 mM KCl, 2 mM MgCl2, 1 mM CaCl2; 20 mM Tris-HCl, 0.02 Tween 20, pH 7.6; R2 0.699 (poor fit)
[8] = tested on: Sequence 9 (1 to 50) (DNA, aptamer) AGCAGCACAGAGGTCAGATGACTTCAGTGAGTTGTCCCACGGTCGGCGAG; conditions: 100 mM NaCl, 5 mM KCl, 2 mM MgCl2, 1 mM CaCl2; 20 mM Tris-HCl, 0.02 Tween 20, pH 7.6; R2 0.914
[9] = tested on: Sequence 7 (21 to 60) (DNA, aptamer) ACTTCAGTGAGTTGTCCCACGGTCGGCGAGTCGGTGGTAG; conditions: 100 mM NaCl, 5 mM KCl, 2 mM MgCl2, 1 mM CaCl2; 20 mM Tris-HCl, 0.02 Tween 20, pH 7.6; R2 0.882
[10] = tested on: Sequence 4 (6 to 75) (DNA, aptamer) CACAGAGGTCAGATGACTTCAGTGAGTTGTCCCACGGTCGGCGAGTCGGTGGTAGCCTATGCGTGCTACC; conditions: 100 mM NaCl, 5 mM KCl, 2 mM MgCl2, 1 mM CaCl2; 20 mM Tris-HCl, 0.02 Tween 20, pH 7.6; R2 0.945
[11] = tested on: Sequence 8 (31 to 80) (DNA, aptamer) GTTGTCCCACGGTCGGCGAGTCGGTGGTAGCCTATGCGTGCTACCGTGAA; conditions: 100 mM NaCl, 5 mM KCl, 2 mM MgCl2, 1 mM CaCl2; 20 mM Tris-HCl, 0.02 Tween 20, pH 7.6; R2 0.853

**Q.** How did the Kd [1] turn out when `O=C(N[C@H](CO)[C@H](O)c1ccc([N+](=O)[O-])cc1)C(Cl)Cl` was run?
**A.** 4014 nM

**Q.** What about the Kd [2] of the same compound?
**A.** 877 nM

**Q.** What about the Kd [3] of the same compound?
**A.** 1712 nM

**Q.** And the Kd [4]?
**A.** 704 nM

**Q.** And the Kd [5]?
**A.** 645 nM

**Q.** And the Kd [6]?
**A.** 426 nM

**Q.** And the Kd [7]?
**A.** 3109 nM

**Q.** And the Kd [8]?
**A.** 92 nM

**Q.** And the Kd [9]?
**A.** 370 nM

**Q.** What about the Kd [10] of the same compound?
**A.** 661 nM

**Q.** What about the Kd [11] of the same compound?
**A.** 153 nM
